Source: US4698352A, “4-oxo-1,4-dihydronicotinic acid derivatives, salts thereof, and antibacterial agents containing the same” (Toyama Chemical Co., Ltd., priority 1982, dated 1987)
In brackets after ≈: the same amount, converted by molar mass. Read-outs that look alike come from different tables or passages of the source.

Tests used:
Assay in all cases: Antibacterial activity (MIC), agar dilution
Format in all cases: cell-based
[1] = test system: Aci. antitratus A-6; conditions: 20 h
Excerpt: (§1) The amount of bacteria inoculated was 10^4 cells per plate (10^6 cells per ml).

[2] = test system: E. coli NIHJ JC-2; conditions: Escherichia coli, NIHJJC2, 20 h
Excerpt: as §1

[3] = test system: E. coli TK-111; conditions: Escherichia coli, TK111, 20 h
Excerpt: as §1

[4] = test system: Ent. cloacae IID977; conditions: Enterobacter cloacae, IID977, 20 h
Excerpt: as §1

[5] = test system: Kl. pneumoniae Y-41; conditions: Klebsiella pneumoniae, Y41, 10^6 cells per ml, 37° C., 20 hours, read-out: MIC
Excerpt: as §1

[6] = test system: Kl. pneumoniae Y-50; conditions: Klebsiella pneumoniae, Y50, 20 h, 10^6 cells per ml, 37° C.
Excerpt: as §1

[7] = test system: Pro. mirabilis T-111; conditions: Proteus mirabilis, 37° C.
Excerpt: as §1

[8] = test system: Pro. morganii T-216; conditions: Morganella morganii, 37° C.
Excerpt: as §1

[9] = test system: Pro. vulgaris GN3027; conditions: Proteus vulgaris, GN3027, 20 h, Pro. vulgaris GN3027; 10^6 cells per ml; 37° C., 20 hours; read-out: MIC
Excerpt: as §1

[10] = test system: Ps. aeruginosa IFO3445; conditions: Pseudomonas aeruginosa
Excerpt: as §1

[11] = test system: Ps. aeruginosa S-68; conditions: Pseudomonas aeruginosa
Excerpt: as §1

[12] = test system: St. aureus FDA209P; conditions: Staphylococcus aureus, FDA209P, 20 h
Excerpt: as §1

[13] = test system: E. coli TK-3*; conditions: Escherichia coli, 20 h
Excerpt: as §1
(§2) * Penicillinase-producing bacteria

[14] = test system: Kl. pneumoniae Y-4*; conditions: Klebsiella pneumoniae, 20 h, Kl. pneumoniae Y-4, penicillinase-producing; 10^6 cells per ml; read-out: MIC
Excerpt: as §1, §2

[15] = test system: Ps. aeruginosa GN3379*; conditions: Pseudomonas aeruginosa, 20 h; Ps. aeruginosa GN3379, penicillinase-producing; 10^6 cells per ml; read-out: MIC
Excerpt: as §1, §2

[16] = test system: St. aureus F-137*; conditions: Staphylococcus aureus, 20 h
Excerpt: as §1, §2

[17] = test system: E. coli GN5482**; conditions: Escherichia coli, 20 h; E. coli GN5482, cephalospolinase-producing; 10^6 cells per ml; read-out: MIC
Excerpt: as §1
(§3) ** Cephalospolinase-producing bacteria

[18] = test system: Pro. vulgaris GN76**; conditions: Proteus vulgaris
Excerpt: as §1, §3

[19] = test system: Ps. aeruginosa GN918**; conditions: Pseudomonas aeruginosa, Ps. aeruginosa GN918, cephalospolinase-producing, 10^6 cells per ml
Excerpt: as §1, §3

[20] = Aci. antitratus A-6, 10^6 cells per ml, 37° C., 20 hours, read-out: MIC
[21] = E. coli NIHJ JC-2, 10^6 cells per ml, 37° C., 20 hours, read-out: MIC
[22] = E. coli TK-111, 10^6 cells per ml, 37° C., 20 hours, read-out: MIC
[23] = Ent. cloacae IID977, 10^6 cells per ml, 37° C., 20 hours, read-out: MIC
[24] = T216, 10^6 cells per ml, 20 hours, read-out: MIC
[25] = Ps. aeruginosa IFO3445, 10^6 cells per ml, 37° C., 20 hours, read-out: MIC
[26] = S68, Ps. aeruginosa S-68, 10^6 cells per ml, 37° C., 20 hours, read-out: MIC
[27] = St. aureus F-137, penicillinase-producing, 10^6 cells per ml, read-out: MIC
[28] = T111, 10^6 cells per ml, 20 hours, read-out: MIC
[29] = St. aureus FDA209P, 10^6 cells per ml, 37° C., 20 hours, read-out: MIC
[30] = E. coli TK-3, penicillinase-producing, 10^6 cells per ml, read-out: MIC
[31] = 20 h, Pro. vulgaris GN76, cephalospolinase-producing, 10^6 cells per ml, read-out: MIC

Row | SMILES | MIC [1, 20] [µg/mL] | MIC [2, 21] [µg/mL] | MIC [3, 22] [µg/mL] | MIC [4, 23] [µg/mL] | MIC [5] [µg/mL] | MIC ([6]; read-out: MIC) [µg/mL] | MIC ([7]; T111, 20 h, 10^6 cells per ml) [µg/mL] | MIC [8, 24] [µg/mL] | MIC [9] [µg/mL] | MIC [10, 25] [µg/mL] | MIC [11, 26] [µg/mL] | MIC [13] [µg/mL] | MIC [14] [µg/mL] | MIC [15] [µg/mL] | MIC [17] [µg/mL] | MIC ([18]; GN76, 20 h) [µg/mL] | MIC ([19]; 20 h, read-out: MIC) [µg/mL] | MIC [16, 27] [µg/mL] | MIC [12, 29] [µg/mL] | MIC [13, 30] [µg/mL] | other results
1 | COc1ccc(-c2cc(=O)c(C(=O)O)cn2-c2ccc(F)cc2)cc1 | 1.56 (≈ 4.6 µM) | 1.56 (≈ 4.6 µM) | 0.78 (≈ 2.3 µM) | 6.25 (≈ 18.4 µM) | 12.5 (≈ 36.8 µM) | 3.13 (≈ 9.22 µM) | 12.5 (≈ 36.8 µM) | 6.25 (≈ 18.4 µM) | 0.39 (≈ 1.15 µM) | 25 (≈ 73.7 µM) | 25 (≈ 73.7 µM) | 3.13 (≈ 9.22 µM) | 12.5 (≈ 36.8 µM) | 25 (≈ 73.7 µM) | 0.2 (≈ 0.589 µM) | 3.13 (≈ 9.22 µM) | 50 (≈ 147 µM) | – | – | – | MIC [12]: 3.13 µg/mL (≈ 9.22 µM); MIC [16]: 3.13 µg/mL (≈ 9.22 µM)
2 | O=C(O)c1cn(-c2ccc(O)cc2)c(C2CC=CCC2)cc1=O (stereo not drawn) | – | – | – | – | 6.25 (≈ 20.1 µM) | 1.56 (≈ 5.01 µM) | 12.5 (≈ 40.1 µM) | 3.13 (≈ 10.1 µM) | 0.39 (≈ 1.25 µM) | – | – | 6.25 (≈ 20.1 µM) | 12.5 (≈ 40.1 µM) | 25 (≈ 80.3 µM) | 0.39 (≈ 1.25 µM) | 1.56 (≈ 5.01 µM) | – | 3.13 (≈ 10.1 µM) | – | – | MIC [1]: 6.25 µg/mL (≈ 20.1 µM); MIC [2]: 6.25 µg/mL (≈ 20.1 µM); MIC [3]: 1.56 µg/mL (≈ 5.01 µM); MIC [4]: 6.25 µg/mL (≈ 20.1 µM); MIC ([10]; IFO3445, 20 h): 12.5 µg/mL (≈ 40.1 µM); MIC ([11]; S68, 20 h): 12.5 µg/mL (≈ 40.1 µM); MIC [12]: 1.56 µg/mL (≈ 5.01 µM); MIC ([19]; GN918, 20 h): 1.56 µg/mL (≈ 5.01 µM)
3 | O=C(O)c1cn(-c2ccc(O)cc2)c(-c2ccc(-n3cccn3)cc2)cc1=O | 0.78 (≈ 2.09 µM) | 0.1 (≈ 0.268 µM) | ≤ 0.05 | 0.2 (≈ 0.536 µM) | 0.78 (≈ 2.09 µM) | 0.2 (≈ 0.536 µM) | – | 1.56 (≈ 4.18 µM) | 0.39 (≈ 1.04 µM) | 6.25 (≈ 16.7 µM) | 6.25 (≈ 16.7 µM) | – | 0.78 (≈ 2.09 µM) | 6.25 (≈ 16.7 µM) | ≤ 0.05 | – | 3.13 (≈ 8.38 µM) | 0.39 (≈ 1.04 µM) | 0.39 (≈ 1.04 µM) | 0.2 (≈ 0.536 µM) | MIC [7, 28]: 3.13 µg/mL (≈ 8.38 µM); MIC [18, 31]: 1.56 µg/mL (≈ 4.18 µM)
4 | Cc1nc(-c2ccc(-c3cc(=O)c(C(=O)O)cn3-c3ccc(F)cc3)cc2)co1 | 0.2 (≈ 0.512 µM) | 0.78 (≈ 2 µM) | 0.39 (≈ 0.999 µM) | 3.13 (≈ 8.02 µM) | 6.25 (≈ 16 µM) | 1.56 (≈ 4 µM) | 6.25 (≈ 16 µM) | – | 0.39 (≈ 0.999 µM) | 25 (≈ 64 µM) | – | – | 12.5 (≈ 32 µM) | 25 (≈ 64 µM) | 0.2 (≈ 0.512 µM) | – | 3.13 (≈ 8.02 µM) | 0.39 (≈ 0.999 µM) | 0.39 (≈ 0.999 µM) | 3.13 (≈ 8.02 µM) | MIC ([8]; T216, 20 h, 10^6 cells per ml): 6.25 µg/mL (≈ 16 µM); MIC ([11]; S68, 20 h): 12.5 µg/mL (≈ 32 µM); MIC [18, 31]: 3.13 µg/mL (≈ 8.02 µM)
5 | CN(C)c1ccc(-c2cc(=O)c(C(=O)O)cn2-c2ccc(O)cc2)cc1 [drawing 206] | 0.39 (≈ 1.11 µM) | 0.2 (≈ 0.571 µM) | 0.05 (≈ 0.143 µM) | 0.39 (≈ 1.11 µM) | 0.78 (≈ 2.23 µM) | – | 1.56 (≈ 4.45 µM) | 0.78 (≈ 2.23 µM) | 0.1 (≈ 0.285 µM) | 3.13 (≈ 8.93 µM) | 3.13 (≈ 8.93 µM) | – | 1.56 (≈ 4.45 µM) | 3.13 (≈ 8.93 µM) | 0.05 (≈ 0.143 µM) | – | 1.5 (≈ 4.28 µM) | 0.1 (≈ 0.285 µM) | 0.2 (≈ 0.571 µM) | 0.39 (≈ 1.11 µM) | MIC [6]: 0.2 µg/mL (≈ 0.571 µM); MIC [18, 31]: 0.39 µg/mL (≈ 1.11 µM)
6 | CN(C)c1ccc(-c2cc(=O)c(C(=O)O)cn2-c2ccccc2F)cc1 | 1.56 (≈ 4.43 µM) | 1.56 (≈ 4.43 µM) | 0.78 (≈ 2.21 µM) | – | 6.25 (≈ 17.7 µM) | 3.13 (≈ 8.88 µM) | – | – | 0.78 (≈ 2.21 µM) | > 100 | 25 (≈ 70.9 µM) | 3.13 (≈ 8.88 µM) | 25 (≈ 70.9 µM) | > 100 | 0.39 (≈ 1.11 µM) | 3.13 (≈ 8.88 µM) | > 100 | 1.56 (≈ 4.43 µM) | 1.56 (≈ 4.43 µM) | – | MIC [4]: 6.25 µg/mL (≈ 17.7 µM); MIC [7, 28]: 25 µg/mL (≈ 70.9 µM); MIC ([8]; T216, 20 h, 10^6 cells per ml): 6.25 µg/mL (≈ 17.7 µM)
